Measurements reported in patent US10583181B2, “Recombinant multiple domain fusion protein mitogens and use thereof for inducing enhancement or repression of antigen-specific immunity” (priority 2008, dated 2020).
“Also recorded” adds a separate entry of the source.

Assays:
[1] = test system: PBL-T cells and PBL-non-T cells; assay: Proliferation of PBL-T cells versus PBL-non-T cells; assay type: cell-based, human; conditions: 0.1 μM, 3 days
Method: (§1) Human lymphocytes were stimulated for 3 days in 96 U-bottom well plates with various concentrations of recombinant fusion proteins. In some experiments, a NF-κB inhibitor (SN50, 18 μM, Calbiochem, San Diego, Calif., USA) and a MEK1/2 inhibitor (PD98059, 1 μg/ml, Calbiochem) were added to the cell culture media. Cell proliferation was assessed by thymidine uptake assays. Cultured cells were pulsed with 1 μCi/well of [^3H]thymidine (ICN, Costa Mesa, Calif., USA) for 18 hours and then harvested onto glass fiber filters. [^3H]thymidine incorporation was measured by standard liquid scintillation counting techniques. In some experiments, HA antigen-specific cell proliferation response was assayed by the MTT assay [van de Loosdrecht et al., J. Immunol. Methods, 174:311(1994)], which is a direct measure of cell viability.
PBL-T cells and PBL-non-T cells were stimulated with CD40L-FasL-IgFc (0.1 μM) for three days prior to proliferation assay. […] The data represent the three experiments with similar results. […]
PBMCs derived from normal healthy human adults were separated from whole blood using Ficoll-Paque Plus. […] The purity of human PBL-T cells was greater than 97% as determined by CD3 staining and flow cytometry. […] CD4^+ and CD8^+ T cells were purified to greater than 90% positive for CD4 and CD8, respectively as determined by flow cytometry studies.

OVA = assay: Anti-OVA IgG response in immunized mice (ELISA titer); assay type: in vivo, Balb/c mice
Method: Balb/c mice (4-6 wks of age) were primed intra peritoneal (i.p.) route with 0.1 ml of protein antigens, OVA albumin (Sigma) or GSK […] (GlaxoSmithKline, Mississauga, Ontario, Canada), in the presence and absence of fusion protein or cDNA harboring plasmid. To determine the antigen-specific IgG titer in the serum of the individual mouse, ELISA were performed using 0.1 μg/ml antigen-coated assay plates (Maxisorp, Nunc 44-2404-21) following the standard procedure.
Balb/c mice were immunized i.p. with 0.2 μg of OVA and 5 μg of CD40L-FasL-IgFc (indicated as Primed). On Day 14, blood samples were harvested and subsequently mice were injected with 0.2 μg of OVA (indicated as Boosted). Sera from day 14 and day 21 were analysed by ELISA for the IgG activity against OVA. […] Squares indicate mice immunized with OVA alone. Circles indicate mice immunized with both OVA and CD40L-FasL-IgFc. Numbers in squares and circles indicate individual mouse. The […] activity of pre-immune serum from each mouse was equally low at less than 50 in titer.

human PBMCs = assay: Proliferation of human PBMC ([3H]thymidine uptake); assay type: cell-based
Method: as §1
We cultured human PBMCs and mouse spleen cells in the presence of CD40L-FasL-IgFc. Whole blood, obtained from a healthy donor, was twice diluted with Na-PBS (pH 7.2) and peripheral blood mononuclear cells (PBMCs) were separated by Ficoll density gradients (Ficoll-Paque Plus, Amarsham Biotech) by centrifugation (Sorvall RT 6000, 1500 rpm for 15 minutes at room temperature). The peripheral blood mononuclear cells were collected from the interphase between the PBS top layer and Ficoll plus bottom layer, washed with PBS and subjected to cell proliferation assays. […]

PRDI-BF1 = PRDI-BF1 RNA by RT-PCR; assay type: cell-based, human; conditions: 0.1 μM, 3 days
Method: (§2) Using specific primers, PRDI-BF1 RNA was amplified by RT-PCR (20 cycles) from cytoplasmic RNA derived from PBL cells stimulated for three days with fusion proteins (0.1 μM). T-bet and GATA3 RNAs were amplified by RT-PCR (25 cycles) from cytoplasmic RNA derived from CD4^+ T cells stimulated for five days with fusion proteins (0.1 μM). Each sample was subjected to electrophoresis on agarose gels and stained with ethidium bromide (EtBr) to detect amplified fragments: 594 bp for PRDI-BF1, 206 bp for T-bet and 131 bp for GATA3.
PBMCs were stimulated with fusion proteins (0.1 μM) for three days. The total RNA was assayed for the message of PRDI-BF1 by RT-PCR. Each sample was electrophoresed on agarose gels and stained with ethidium bromide (EtBr) to detect amplified fragments. The data represent the results from three experiments with similar results.

[2] = test system: Influenza hemaglutinin-specific T cell response; design: species or system Balb/c mice; conditions: mouse, in vivo, ip
Influenza hemaglutinin = test system: Influenza hemaglutinin; design: species or system Balb/c mice; conditions: mouse; for HA-specific IgG, secondary response following boost / HA-specific IgG, primary response: in vivo; for HA-specific IgG, primary response: ip
PBL-B cells = assay: TNP-specific IgG/IgM secretion ELISA; assay type: cell-based, human; conditions: 4 days culture, supernatant ELISA
Method: (§3) The relative concentrations of TNP-specific human IgG and IgM in supernatants from 4 day cultures were determined by ELISA assays. TNP22-BSA (1 μg/ml) was used to coat assay plates, and alkaline phosphatase-conjugated anti-human IgG (Fab-specific) (Sigma) or anti-human IgM (μ-chain-specific) (Sigma) were used as the detection reagents. The concentration of IL-2 in fusion protein-stimulated culture supernatants was measured by human-IL-2-specific ELISA kit (Roche, Laval, QC, Canada). The lower limit of detection was 30 pg/ml in IL-2 assay.
We next assessed the effect on IgG secretion by fusion protein-induced co-clustering of CD40 and Fas in B cells. PBL-B cells were incubated with CD40L-FasL-IgFc for four days and the supernatants were assayed for IgG- and IgM-specific trinitrophenyl (TNP) hapten [Galanaud et al., Cell. Immunol., 106:234 (1987)].
PBMCs were stimulated with fusion proteins for four days. The relative concentrations of TNP-specific human IgG and IgM in supernatants were determined by ELISA assays. […] The data represent the three experiments with similar results.

[3] = test system: human B lymphoma cells (Raji, Daudi); assay: Cell death of human B lymphoma cells after treatment; assay type: cell-based; conditions: Raji and Daudi cells
[4] = test system: B cell (CD19+) and monocyte (CD14+) fractions; assay: Phenotype of CD40L-FasL-IgFc activated cells; assay type: cell-based, human; conditions: cultures stimulated for 5 days
IL-2 = IL-2 production of T cells (ELISA); assay type: cell-based, human; conditions: 1 μg/ml, 3 days
Method: as §3
T cells were stimulated by B7-2-FasL-IgFc (1 μg/ml) or phytohemagglutinin (5 μg/ml) for 3 days. The concentration of IL-2 in culture supernatants was measured by ELISA assays. The lower limit of detection was 30 pg/ml in IL-2 assay. The data represent the three experiments with similar results.

[5] = test system: human Fas-apoptosis-sensitive Jurkat T cell line or human peripheral blood T lymphocytes; assay: Cell death in Jurkat T cell line or peripheral blood T lymphocytes; assay type: cell-based
From the text: According to understanding, the strong cell activation by simultaneous stimulation of a co-stimulation receptor and another death receptor is not a predictable outcome. […] A possible explanation for the strong activation in CD28^+/Fas^+ T cells is that B7-2 and FasL must be located in the close proximity to each other, as is the case when linked together in the B7-2-FasL-IgFc fusion protein.

[6] = test system: Total T cells, CD4+ T cells and CD8+ T cells; assay: Proliferation of purified human T cells (total, CD4+, CD8+); assay type: cell-based
Method: as §1
PBMCs derived from normal healthy human adults were separated from whole blood using Ficoll-Paque Plus. Peripheral blood lymphocyte (PBL)-T cells, PBL-B cells, CD4^+ T cells, CD8^+ T cells were purified by negative selection using RosetteSep (StemCell Tec. Vancouver, BC, Canada), while non-T cells were purified by negative selection using pan-T magnet beads (M-450, Dynal, Lake Success, N.Y., USA). The purity of human PBL-T cells was greater than 97% as determined by CD3 staining and flow cytometry. […] CD4^+ and CD8^+ T cells were purified to greater than 90% positive for CD4 and CD8, respectively as determined by flow cytometry studies.
Total T cells, CD4^+ T cells and CD8^+ T cells were stimulated with either B7-2-FasL-IgFc or control fusion proteins. CD4^+ T cells and CD8^+ T cells were stimulated with various fusion proteins. After 72 hours in culture, cell proliferation was assessed. Data indicates the average and standard deviation of quadruplicate samples. The data represent the three experiments with similar results.

T-bet = T-bet RNA in CD4+ T cells by RT-PCR; assay type: cell-based, human; conditions: 5 days
Method: as §2
CD4^+ T cells were stimulated by B7-2-FasL-IgFc (0.1 μM) for 5 days before total RNA was harvested and tested for increased mRNA expression of T-bet (for Th1 differentiation) and GATA-3 (for Th2 differentiation) by RT-PCR. Each sample was electrophoresed on agarose gels and stained with ethidium bromide (EtBr) to detect amplified fragments: 206 bp for T-bet and 131 bp for GATA3. The data represent the three experiments with similar results.

**Q.** What does the source list for “CD40L-FasL-IgFc: fusion protein of human CD40L extracellular domain, human FasL extracellular domain and human IgG1 Fc (SEQ ID NO: 13)”?
**A.** cell subset specificity of activation (T versus non-T/B cells) [1]: did not activate T lymphocytes but resulted in a strong mitogenic activity against B cells; also recorded: specific for the non-T cell subsets; OVA-specific IgG, primary response (OVA; 0.2 μg OVA + 5 μg fusion protein i.p., day 14 sera): high titers; OVA-specific IgG after boost (OVA; boost 0.2 μg OVA on day 14, day 21 sera): increased markedly; cell activation / mitogenic response (proliferation) of PBMC (human PBMCs; 3 days stimulation, 3H-thymidine, active even at 0.1-0.01 μg/ml): significant cell activation; also recorded: greatly exceeded the mitogenic response induced by the co-stimulation with CD40L-IgFc and FasL-IgFc; mitogenic activity after adsorption with Polymixin B (human PBMCs; fusion protein pre-absorbed with Polymixin B-coated beads, 3 days): did not attenuate the mitogenic activity; expression of PRDI-BF1 RNA (PRDI-BF1): increased expression; HA-specific CD8+ T cell response [2]: only detectable in spleen cells immunized with CD40L-FasL-IgFc; HA-specific response by total T cells [2]: lowered the HA-specific response by total T cells; HA-specific IgG, secondary response following boost (Influenza hemaglutinin): far greater; HA-specific IgG, primary response (Influenza hemaglutinin): significantly increased the antibody response; anti-TNP IgG secretion (PBL-B cells): significantly increased; cell death of B lymphoma cells [3]: did not undergo cell death; increase of B cell (CD19+) fraction [4]: 30%; increase of monocyte (CD14+) fraction [4]: 15%

**Q.** With “B7-2-FasL-IgFc: fusion protein of human B7-2 extracellular domain, FasL extracellular domain and IgG1 Fc (SEQ ID NO: 17)” as the substance, how does the “IL-2 secretion by T cells” value (IL-2) read?
**A.** secretion of IL-2

**Q.** And the “HA-specific CD8+ T cell response” value [2]?
**A.** undetectable

**Q.** What about the “HA-specific response by total T cells” value [2] of the same substance?
**A.** suppressed the HA-specific response by total T cells

**Q.** And the “induction of cell death” value [5]?
**A.** did not induce cell death

**Q.** What about the “humoral and cellular immune responses in vivo” value (Influenza hemaglutinin) of the same substance?
**A.** severe repression of humoral and cellular immune responses

**Q.** What about the “HA-specific IgG, secondary response following boost” value (Influenza hemaglutinin) of the same substance?
**A.** far lower

**Q.** What about the “HA-specific IgG, primary response” value (Influenza hemaglutinin) of the same substance?
**A.** repressed the antibody response

**Q.** And the “T cell proliferation (mitogenic response)” value ([6]; 72 hours culture)?
**A.** strong activation of proliferation; also recorded: strong T cell-specific mitogenic response; also recorded: proliferation of both CD4^+ and CD8^+ T cells increased

**Q.** What about the “magnitude of T cell proliferation compared with phytohemagglutinin (PHA)” value ([6]; 72 hours culture) of the same substance?
**A.** comparable to that induced by the well-known T cell mitogen PHA; also recorded: comparable to phytohemagglutinin-induced T cell mitogenesis

**Q.** And the “dose required by CD8+ T cells to achieve similar levels of proliferation to CD4+ T cells” value ([6]; CD8+ versus CD4+ T cells)?
**A.** > 20 fold

**Q.** What about the “T-bet transcription factor RNA” value (T-bet; CD4+ T cells, 0.1 μM) of the same substance?
**A.** significant increase

**Q.** What about the “differentiation of CD4+ T cells in vitro” value (T-bet; from T-bet/GATA3 RT-PCR) of the same substance?
**A.** skewing towards Th1 subsets
